Measured values: patent publication US20230144619A1, “SALT OF ARYLAMINOPURINE DERIVATIVE, PREPARATION METHOD THEREFOR AND USE THEREOF” (CSPC Zhongqi Pharmaceutical Technology (Shijiazhuang) Co., …, priority 2020, published 2023)
Counter-ions that a name gives are not always drawn.

How the values were obtained:
[1] = Long-term stability test; assay type: physicochemical; settings: 25±2° C., relative humidity 60%±5%; for Content (%) / Moisture (%) / Related substances (%): packaged; for Acidity: pH value of 10 mg in 10 mL water
Method: Detection instrument: Karl Fischer moisture titrator/915 KF Ti-Touch
Test method: After the instrument was balanced, a proper amount (about 200 mg) of the test sample was taken, precisely weighed, and added to a titration cup, absolute methanol was used as the solvent, and a moisture titration solution was used for the direct measurement, and an average value was obtained by measuring each test sample twice.
Detection Instrument: High performance liquid chromatograph/Waters e2695-2489
Octadecyl silane bonded to silica gel was used as a filler (the applicable range of the pH value should be greater than 10.0), 20 mmol/L of disodium hydrogen phosphate solution (the pH value was adjusted to 10.0 with sodium hydroxide)-acetonitrile (65:35) was used as the mobile phase; the detection wavelength was 287 nm, and the column temperature was 30° C. The number of theoretical plates should be not less than 3000.
Determination method: About 20 mg of the sample was taken and precisely weighed, put in a 100 mL volumetric flask. A diluent (50% methanol/water) was added to dissolve and dilute the sample to the scale. The content was shaken uniformly, and 10 μL was precisely metered and injected into a liquid chromatograph, and the chromatogram was recorded; another appropriate amount of the reference substance was taken, and the same method was used for determination. The result was obtained by calculating the peak area according to the external standard method.
Detection instrument: Mettler Toledo S210-K pH meter
Test method: Based on the operation according to the pH value measurement method, 10 mg of a sample was precisely weighed, then 10 mL of freshly boiled and cooled purified water was added to dissolve the sample, and the mixture was shaken uniformly, and then the pH value was measured.
12. Measurement of Related Substances
Detection instrument: High performance liquid chromatograph/Waters e2695-2489
Chromatographic Conditions:
Octadecylsilane bonded to silica gel was used as a filler (Model: Waters Xbridge C18 chromatographic column, with a length of 250 mm, an inner diameter of 4.6 mm, and a filler particle size of 5 μm), the detection wavelength was 250 nm, the column temperature was 35° C., and the flow rate was 1.0 mL/minute, the mobile phase A was 0.02 mol/L of a disodium hydrogen phosphate solution (the pH value was adjusted to 10.0 with a sodium hydroxide solution), the mobile phase B was acetonitrile, and the diluent was methanol, and the temperature of the sample plate was 4° C.
Test method: The system applicability test was performed according to the requirements, and the test sample solution, the control solution, and the sensitivity solution were prepared. Each 10 μL of the control solution and the test sample solution were precisely metered and injected into a liquid chromatograph, and the chromatogram was recorded. The result was obtained by calculating the peak area according to the self-dilution control method with the correction factor.
An appropriate amount of the salt sample obtained from Example 1 was taken, a medicinal low-density polyethylene sack was used as the internal packaging, and a polyester/aluminum/polyethylene composite bag for medicine packaging was used as the external packaging. Samples were taken respectively at the end of the 3rd, 6th, 9th, 12th, and 18th months after being stored at a temperature of 25±2° C. under a relative humidity of 60%±5%. The appearances were compared, followed by measuring other investigation indexes. The results were compared with those measured in the 0th month.

[2] = tested on: human non-small cell lung cancer HCC827; experiment: In-vivo anti-tumor test, non-small cell lung cancer model; set-up: species or system nude mice; settings: once daily oral administration for 30 days
Method: (§1) The salt sample obtained from Example 1 was tested (specifically for FLT3-ITD acute myeloid leukemia, non-small cell lung cancer with EGFR activating mutations, or Ph-positive chronic myeloid leukemia) according to the in-vivo anti-tumor test described in the biological assessment of the patent application WO2011/147066.

[3] = Hygroscopicity test; assay type: physicochemical; settings: 25±1° C., relative humidity 80%±2% (DVS, 80% RH)
Method: Detection instrument: XPE105DR
(1) A dry stoppered glass weighing bottle was taken, placed in a suitable constant-temperature desiccator at 25° C. 1° C. (with a saturated solution of ammonium chloride or ammonium sulfate in the lower part) or an artificial climate box (with the set temperature of 25° C.±1° C. and the relative humidity of 80%±2%) on the day before the test, and precisely weighed and recorded as the weight (m1).
(2) An appropriate amount of the test sample was taken and spread in the above-mentioned weighing bottle. The thickness of the test sample was generally about 1 mm, and the bottle was precisely weighed and recorded as the weight (m2).
(3) The stopper was removed to open the weighing bottle, and the opened weighing bottle and the stopper were placed under the above-mentioned constant temperature and humidity conditions for 24 hours.
(4) The opened weighing bottle was stoppered, precisely weighed, and recorded as the weight (m3).
Percentage increase in mass=(m3−m2)/(m2−m1)×100%
(5) The description of hygroscopicity characteristics and the definition for the weight gain due to hygroscopicity:
Deliquescence: Sufficient water was absorbed to form a liquid.
Very hygroscopic: the weight gain due to hygroscopicity was not less than 15%.
Hygroscopic: the weight gain due to hygroscopicity was less than 15% but not less than 2%.
Slightly hygroscopic: the weight gain due to hygroscopicity was less than 2% but not less than 0.2%.
Not or nearly not hygroscopic: the weight gain due to hygroscopicity was less than 0.2%.
Appropriate amounts of the salt samples obtained from Examples 1 and 3-17 were subjected to the hygroscopicity test at a temperature of 25±1° C. under a relative humidity of 80%±2%, and the results were as follows: […]

[4] = tested on: K562 (BCR-Abl gene rearrangement) subcutaneous tumor model; experiment: In-vivo anti-tumor test, K562 subcutaneous tumor model; set-up: species or system nude mice; settings: 70 mg/kg, once daily oral administration for 18 days
Method: as §1

- Content (%) ([1]; 0 Month): 100.9%
- Moisture (%) ([1]; 0 Month): 13.9%
- Related substances (%) ([1]; 0 Month): 0.33%
- Content (%) ([1]; 3 Month): 100.4%
- Moisture (%) ([1]; 3 Month): 13.9%
- Related substances (%) ([1]; 3 Month): 0.34%
- Content (%) ([1]; 6 Month): 100.8%
- Moisture (%) ([1]; 6 Month): 14.3%
- Related substances (%) ([1]; 6 Month): 0.34%
- Content (%) ([1]; 9 Month): 101.7%
- Moisture (%) ([1]; 9 Month): 14.3%
- Related substances (%) ([1]; 9 Month): 0.31%
- Content (%) ([1]; 12 Month): 99.6%
- Moisture (%) ([1]; 12 Month): 13.9%
- Related substances (%) ([1]; 12 Month): 0.34%
- Content (%) ([1]; 18 Month): 100.2%
- Moisture (%) ([1]; 18 Month): 14.2%
- Related substances (%) ([1]; 18 Month): 0.26%
- Acidity ([1]; 0 Month): 3.1
- Acidity ([1]; 3 Month): 3.3
- Acidity ([1]; 6 Month): 3.3
- Acidity ([1]; 9 Month): 3.3
- Acidity ([1]; 12 Month): 3.3
- Acidity ([1]; 18 Month): 3.3
- Weight gain due to hygroscopicity [3]: 0.7%
SMILES: CC(C)n1c(Nc2cccnc2)nc2cnc(Nc3ccc(N4CCN(C)CC4)cc3)nc21 [Example 1, arylaminopurine derivative.trihydrochloride.pentahydrate]
- growth of human non-small cell lung cancer HCC827 ([2]; 7.5, 15 and 30 mg/kg, dose dependence): dose-dependently inhibit the growth
- tumor size compared with the initial tumor ([2]; HCC827, 7.5 mg/kg): tumor shrinkage
- tumor size compared with the initial tumor ([2]; HCC827, 15 mg/kg): tumor shrinkage
- regression of the tumor ([2]; HCC827, 30 mg/kg): nearly complete regression of the tumor
- tumor size compared with the initial tumor ([2]; HCC827, 30 mg/kg): tumor shrinkage
- Hygroscopicity [3]: Slightly hygroscopic (the weight gain due to hygroscopicity was less than 2% but not less than 0.2%.)
- tumor growth [4]: effectively inhibit the tumor growth
- tumor inhibition rate [4]: 71.3%
